Source: patent EP4741392A1, “1H-PYRAZOLO[4,3-C]PYRIDINE COMPOUND, AND COMPOSITION THEREOF AND USE THEREOF” (Shenzhen TargetRx Co., Ltd., priority 2023, dated 2025)

Legend:
Format in all cases: cell-based
OCI-LY10 cells = assay: Viability assay of OCI-LY10 cells (CTG); details: Homo sapiens, OCI-Ly10, 120 h, cell viability, read-out: OCl-Ly10
How it was run: (§1)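 TMD8 (RPMI 1640, 10% FBS) and OCI-LY10 (IMDM, 20% FBS, 0.05 mM 2-mercaptoethanol) cells seeded at 1500 per well, then treated 120 h at 37 °C with compound, top final 1000 nM, 9 points, 3-fold, triplicate. CellTiter-Glo luminescence; IC50 by four-parameter logistic fit versus DMSO.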

Ramos cells with BTK WT = assay: Phosphor-BTK(Y223) assay, suspended cells; details: Homo sapiens, Ramos, phosphorylated BTK Y223, Ramos cells with BTK WT
How it was run: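 Ramos BTK WT cells (2.5 k/well) were treated with compound dilutions for 2 h at 37 °C, then 5 mM Na3VO4 for 3 h. Lysates were read by HTRF p-BTK(Y223) cryptate/d2 antibodies overnight at RT (665/620 ratio). IC50 came from a four-parameter fit of % inhibition versus blank and positive-control wells.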

TMD8 cells = assay: Viability assay of TMD8 cells (CTG); details: Homo sapiens, cell viability, 120 hours
How it was run: as §1

Measured: IC50

COc1ccc(F)cc1C(=O)NCc1ccc(-c2nc([C@H]3CC[C@H](CO)CC3)cc3[nH]nc(N)c23)cc1 [Example 117, N-(4-(3-amino-6-((1r,4r)-4-(hydroxymethyl)cyclohexyl)-1H-pyrazolo[4,3-c]pyridin-4-yl)benzyl)-5-fluoro-2-methoxybenzamide]
≤ 5 nM: all assays above
